Measurements: ChEMBL document CHEMBL1201862, “PubChem BioAssay data set” (2004)
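Briefly, cells in 96-well plates were exposed to five compound concentrations for 48 h, and endpoints were estimated by linear interpolation. GI50 = concentration required for 50% inhibition of growth.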 Activity calls are given as the source filed them. No stated cut-off is given here; in the data, active = GI50 up to about 1.1 µM and inactive = higher.

Legend:
Assay in all cases: NCI tumour cell line growth inhibition, 48 h
RXF 393 = test system: RXF 393
SN12C = test system: SN12C
HCT-116 = test system: HCT-116
LOX IMVI = test system: LOX IMVI
OVCAR-3 = test system: OVCAR-3
A498 = test system: A498
MOLT-4 = test system: MOLT-4
K562 = test system: K562
OVCAR-5 = test system: OVCAR-5
SK-MEL-5 = test system: SK-MEL-5
SF-268 = test system: SF-268
EKVX = test system: EKVX
SNB-19 = test system: SNB-19
Malme-3M = test system: Malme-3M
SNB-75 = test system: SNB-75
UACC-62 = test system: UACC-62
HCT-15 = test system: HCT-15
M14 = test system: M14
ACHN = test system: ACHN
TK-10 = test system: TK-10

| SMILES | GI50 (RXF 393) | GI50 (SN12C) | GI50 (HCT-116) | GI50 (LOX IMVI) | GI50 (OVCAR-3) | GI50 (A498) | GI50 (MOLT-4) | GI50 (K562) | GI50 (OVCAR-5) | GI50 (SK-MEL-5) | GI50 (SF-268) | GI50 (EKVX) | GI50 (SNB-19) | GI50 (Malme-3M) | GI50 (SNB-75) | GI50 (UACC-62) | GI50 (HCT-15) [µM] | GI50 (M14) | GI50 (ACHN) | GI50 (TK-10) |
| --- | --- | --- | --- | --- | --- | --- | --- | --- | --- | --- | --- | --- | --- | --- | --- | --- | --- | --- | --- | --- |
| CCCCCCCCCCCCCCCCNCC(O)CN (stereo not drawn) | 2.82 µM (inactive) | 4.07 µM (inactive) | 1.87 µM (inactive) | 1.75 µM (inactive) | 2.52 µM (inactive) | 18 µM (inactive) | 2.07 µM (inactive) | 1.75 µM (inactive) | 7.76 µM (inactive) | 11.7 µM (inactive) | 3.32 µM (inactive) | 17.3 µM (inactive) | 19.5 µM (inactive) | 16.2 µM (inactive) | 3.28 µM (inactive) | 4.7 µM (inactive) | 2.06 | – | – | – |
| OC1CCSc2ccccc21 (stereo not drawn) | > 100 µM (inactive) | > 100 µM (inactive) | > 100 µM (inactive) | > 100 µM (inactive) | > 100 µM (inactive) | – | > 100 µM (inactive) | > 100 µM (inactive) | > 100 µM (inactive) | > 100 µM (inactive) | > 100 µM (inactive) | > 100 µM (inactive) | > 100 µM (inactive) | > 100 µM (inactive) | – | > 100 µM (inactive) | > 100 | > 100 µM (inactive) | > 100 µM (inactive) | – |
| Cc1cccc(C(O)c2ccccn2)c1O (stereo not drawn) | > 100 µM (inactive) | > 100 µM (inactive) | > 100 µM (inactive) | > 100 µM (inactive) | > 100 µM (inactive) | – | > 100 µM (inactive) | > 100 µM (inactive) | > 100 µM (inactive) | > 100 µM (inactive) | > 100 µM (inactive) | > 100 µM (inactive) | > 100 µM (inactive) | > 100 µM (inactive) | > 100 µM (inactive) | 74.6 µM (inactive) | 83.2 | – | > 100 µM (inactive) | > 100 µM (inactive) |
| Cc1cc(O)c(C(C)C)cc1SC#N | 15.5 µM (inactive) | – | – | 11.9 µM (inactive) | 15.5 µM (inactive) | 17.1 µM (inactive) | 3.15 µM (inactive) | 6.3 µM (inactive) | – | 19.6 µM (inactive) | 19.3 µM (inactive) | – | – | 17.4 µM (inactive) | 10.4 µM (inactive) | 14.6 µM (inactive) | 17.3 | – | 16.2 µM (inactive) | 16.9 µM (inactive) |
| CN1C[C@H]2[C@@H](C1=O)[C@H](c1ccc([N+](=O)[O-])cc1)ON2C | – | > 100 µM (inactive) | > 100 µM (inactive) | > 100 µM (inactive) | > 100 µM (inactive) | – | > 100 µM (inactive) | > 100 µM (inactive) | > 100 µM (inactive) | > 100 µM (inactive) | – | – | > 100 µM (inactive) | – | – | – | > 100 | > 100 µM (inactive) | > 100 µM (inactive) | > 100 µM (inactive) |
| C=CC1OC(CCCOC(=O)C(C)(C)C)O[C@@H]1CC (stereo partly drawn) | – | > 100 µM (inactive) | – | – | > 100 µM (inactive) | > 100 µM (inactive) | > 100 µM (inactive) | – | > 100 µM (inactive) | > 100 µM (inactive) | > 100 µM (inactive) | > 100 µM (inactive) | > 100 µM (inactive) | – | > 100 µM (inactive) | > 100 µM (inactive) | > 100 | > 100 µM (inactive) | > 100 µM (inactive) | > 100 µM (inactive) |
| CCN1c2ccccc2NC(=S)c2c(-c3ccccc3)n[nH]c21 | 27.7 µM (inactive) | 43.5 µM (inactive) | 33.2 µM (inactive) | 30.5 µM (inactive) | 53.3 µM (inactive) | – | 17 µM (inactive) | 17.6 µM (inactive) | 56.4 µM (inactive) | 20.3 µM (inactive) | 27.4 µM (inactive) | 21 µM (inactive) | – | – | 55.7 µM (inactive) | 27.3 µM (inactive) | 23 | 31.6 µM (inactive) | 37.2 µM (inactive) | 48.4 µM (inactive) |
| Cc1ccc(C)c(NC(=O)C(=O)C(C(=O)c2ccc3ccccc3c2)C2OC(=O)c3ccccc32)c1 (stereo not drawn) | 2.97 µM (inactive) | 15.7 µM (inactive) | 12.3 µM (inactive) | 13.6 µM (inactive) | – | 16.8 µM (inactive) | 5.25 µM (inactive) | 25.7 µM (inactive) | 14.9 µM (inactive) | 17.2 µM (inactive) | 3.57 µM (inactive) | 16.5 µM (inactive) | 8 µM (inactive) | – | 12.4 µM (inactive) | 14.6 µM (inactive) | 21.5 | 14.6 µM (inactive) | 26.5 µM (inactive) | 19.2 µM (inactive) |
| CC(=O)OC[C@H]1[C@@H]2C(CC[C@]13CO3)OC(=O)CC(C)[C@]2(C)CCc1ccoc1 (stereo partly drawn) | > 100 µM (inactive) | > 100 µM (inactive) | > 100 µM (inactive) | > 100 µM (inactive) | > 100 µM (inactive) | > 100 µM (inactive) | > 100 µM (inactive) | > 100 µM (inactive) | > 100 µM (inactive) | > 100 µM (inactive) | > 100 µM (inactive) | > 100 µM (inactive) | > 100 µM (inactive) | > 100 µM (inactive) | – | > 100 µM (inactive) | > 100 | > 100 µM (inactive) | > 100 µM (inactive) | > 100 µM (inactive) |
